“Also recorded” adds a separate entry of the source.
Assays:
leukocyte populations = assay: Flow cytometric analysis of leukocyte populations in B16 tumor-bearing mice; format: in vivo; conditions: vs vehicle
Experimental: (§1) WT or C3aR^−/− mice were injected subcutaneously (s.c.) with B16-F0 melanoma (2.5×10^5 cells/mouse) or MC38 colon carcinoma (1×10^6 cells/mouse); female BALB/c mice were injected into the mammary fat pad with 4T1 mammary carcinoma (5×10^5 cells/mouse). Tumor growth was monitored daily from day 5 after tumor cell injection. For some experiments, C57BL/63 mice received daily injections of either C3aR antagonist (SB290157; VDM Biochemicals, Bedford Heights, Ohio; diluted in saline, 1 mg/kg/day i.p.,), C5aR antagonist (PMX53; produced in-house; 1 mg/kg/day) or vehicle only (0.9% saline or 5% glucose solution) control, commencing once tumors became palpable (approx. day 7 after tumor cell injection). For most experiments, mice were euthanized at day 14 (or once the largest tumor reached an area of approx. 200 mm^2), blood was collected by cardiac puncture, tumors, spleen, draining lymph nodes (inguinal, axillary and brachial) and femurs excised for FACS or immunostaining; tumors were weighed. For ‘survival’ studies, the time taken for each tumor to reach a pre-determined size (150 mm^2) was recorded, then mice euthanized.
Single cell suspensions of blood, tumor, spleen and lymph node and bone marrow cell were prepared for surface staining with antibodies to mouse CD45, F4/80, CD11b, Ly6G, Gr-1, CD3, CD4, CD8a (all from Biolegend, San Diego, Calif.). Staining for Tregs was carried out using a FoxP3 Fix/Perm kit (BioLegend), according to manufacturer's instructions. For Th1, Th2, Th17 staining, cells were stimulated with phorbol 12-myristate 13-acetate (PMA; 50 ng/ml; Sigma) and ionomycin (1 μM; Sigma) in the presence of Brefeldin A (5 μg/ml; BioLegend) for 4 h at 37° C. After surface staining, cells were fixed and permeabilized for staining of intracellular cytokines; IL-4, IL-17A or IFN-γ (all from BioLegend). Flow cytometry was performed using an Accuri C6 flow cytometer (BD Biosciences) and data analysis with FlowJo software (Tree Star, Inc., Ashland, Oreg.). Details are provided in Supplemental Experimental Procedures.

4T1 mammary carcinoma = 4T1 mammary carcinoma growth in BALB/c mice; format: in vivo; conditions: female BALB/c mice, 1 mg/kg/day i.p. from day 0, vs saline
Experimental: as §1, with “For some experiments, C57BL/63 mice received daily injections of either C3aR antagonist (SB290157; VDM Biochemicals, Bedford Heights, Ohio; diluted in saline, 1 mg/kg/day i.p.,), C5aR antagonist (PMX53; produced in-house; 1 mg/kg/day) or vehicle only (0.9% saline or 5% glucose solution) control, commencing once tumors became palpable (approx. day 7 after tumor cell injection).” left out

B16 melanoma = B16 melanoma growth and survival in mice; format: in vivo; conditions: for survival (time until tumors reach maximal size): C3aRA vs vehicle
Experimental: as §1

[1] = tested on: ERK and AKT signaling pathways; assay: Western analysis of ERK and AKT phosphorylation in B16 cells; format: cell-based, murine; conditions: cultured B16 cells, 0-60 min
Experimental: B16 cells were treated with recombinant human C3a (10 nM) or the selective mouse C3aR agonist WWGKKYRASKLGLAR [SEQ ID NO: 5] (Proctor et al., 2009; Wu et al., 2013) for the times indicated in the experiment. After treatment, crude protein extracts were obtained by disrupting the cells in RIPA lysis buffer. Samples were subjected to SDS-PAGE (Laemmli, 1970), then separated proteins electrotransferred (Towbin et al., 1979) to a PVDF membrane. Membranes were incubated with antibodies to anti-phospho-AKT, anti-total AKT (Cell Signaling, Danvers, Mass.), mouse anti-diphosphorylated ERK1/2 and rabbit anti-total ERK1/2 (Sigma-Aldrich) followed by fluorescently-labelled secondary antibodies (IR Dye 800CW-goat anti-mouse Ig and IR Dye 680LT anti-rabbit Ig; Li-Cor Biosciences). Immunoreactive bands were visualized by scanning on an Odyssey Imaging System (Li-Cor Biosciences) and the percentage phosphorylated protein relative to total protein determined using Odyssey V3.0 image analysis software.

C3aR = target: T1, C3aR (Mus musculus, UniProt O09047); assay: Calcium mobilization in B16 cells; format: cell-based, murine; conditions: cultured B16 cells
T1 construct: endogenous in cells; host or cells: B16-F0 murine melanoma cells (ATCC CRL6322)
T1 sequence (O09047 1-477): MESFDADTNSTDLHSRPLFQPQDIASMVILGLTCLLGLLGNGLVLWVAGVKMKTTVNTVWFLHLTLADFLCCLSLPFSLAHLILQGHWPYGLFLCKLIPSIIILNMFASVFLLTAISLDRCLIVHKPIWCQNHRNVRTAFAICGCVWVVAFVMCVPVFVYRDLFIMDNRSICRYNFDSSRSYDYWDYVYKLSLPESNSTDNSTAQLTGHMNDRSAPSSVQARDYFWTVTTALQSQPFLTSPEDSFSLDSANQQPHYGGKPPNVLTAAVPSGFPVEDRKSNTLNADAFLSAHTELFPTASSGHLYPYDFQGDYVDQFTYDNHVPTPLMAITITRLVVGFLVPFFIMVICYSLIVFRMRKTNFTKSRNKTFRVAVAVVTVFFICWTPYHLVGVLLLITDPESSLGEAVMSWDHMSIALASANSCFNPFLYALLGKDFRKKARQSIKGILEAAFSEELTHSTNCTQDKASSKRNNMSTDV

B16 melanoma cells [2] = assay: Cell migration assay (scratch) of B16 cells; format: cell-based, murine; conditions: 10^-6 mol/L, 24 hours
Experimental: Cells were seeded at confluence (2×10^5 cells/cm^2) into a 24 well plate, adhered overnight and then confluent monolayers scratched with a pipette tip before being treated for 24 hours with C3aR agonist (10^−6 mol/L); control wells were incubated with medium alone or containing 5% FCS. Migration was quantified by measuring cell-free areas at day 0 and 24 hours using Image-J software (NIH, Bethesda, Md., USA).

B16 melanoma cells [3] = assay: B16 tumor cell proliferation; format: cell-based, murine
CD11b+Ly6G+ neutrophils = assay: Neutrophil mobilization by G-CSF in wild-type and C3aR-/- mice; format: in vivo; conditions: 120 μg/kg i.v., 2 hours
Experimental: Wild-type, or C3aR^−/− mice were injected i.v. with G-CSF (Lenograstim; 120 μg/kg), or vehicle (saline). Blood was collected after 2 hours, and CD11b+Ly6G+ neutrophils analyzed using flow cytometry for CD11b+ and Ly6G+.

[4] = established B16 melanoma, C57BL/6J mice, 1 mg/kg/day i.p. from day 7, vs vehicle

Which Tregs (leukocyte populations; blood) does the source give for `N=C(N)NCCC[C@H](NC(=O)COCC(c1ccccc1)c1ccccc1)C(=O)O` [SB290157, N^2-[(2,2-diphenylethoxy)acetyl]-1-arginine] here?
The Tregs was “reduction”.

And the neutrophils (leukocyte populations; blood)?
The neutrophils was “significant increase”.

And the MDSC (leukocyte populations; bone marrow)?
Its MDSC is “significantly lower”.

What about the monocytes (leukocyte populations; bone marrow) of the same molecule?
Its monocytes is “significantly lower”.

And the neutrophils (leukocyte populations; bone marrow)?
The neutrophils was “significantly lower”.

And the Th2 cells (leukocyte populations; draining lymph nodes)?
Its Th2 cells is “significantly increased”.

And the macrophages (leukocyte populations; draining lymph nodes)?
The macrophages was “not significantly different”.

What about the monocytes (leukocyte populations; draining lymph nodes) of the same molecule?
Its monocytes is “not significantly different”.

And the neutrophils (leukocyte populations; draining lymph nodes)?
Its neutrophils is “not significantly different”.

And the “percentage of CD4+ T lymphocytes” value (leukocyte populations; draining lymph nodes)?
The value was “significantly increased”.

And the “percentage of CD8+ T lymphocytes” value (leukocyte populations; draining lymph nodes)?
The value was “significantly increased”.

What about the “CD4+ lymphocytes” value (leukocyte populations; spleen) of the same molecule?
The value was “significantly higher”.

What about the MDSC (leukocyte populations; spleen) of the same molecule?
Its MDSC is “significantly lower”.

And the Th2 cells (leukocyte populations; spleen)?
The Th2 cells was “significant increases”.

What about the Treg cells (leukocyte populations; spleen) of the same molecule?
The Treg cells was “significant increases”.

What about the proportion of macrophages (leukocyte populations; spleen) of the same molecule?
The proportion of macrophages was “not significantly altered”.

And the proportion of monocytes (leukocyte populations; spleen)?
Its proportion of monocytes is “not significantly altered”.

And the proportion of neutrophils (leukocyte populations; spleen)?
Its proportion of neutrophils is “not significantly altered”.

And the total lymphocytes (leukocyte populations; spleen)?
The total lymphocytes was “significantly higher”.

And the “percentage of CD4+ T lymphocytes” value (leukocyte populations; tumor tissue, 1 mg/kg/day)?
Its value is “higher”.

What about the “percentage of Th1 subset” value (leukocyte populations; tumor tissue, 1 mg/kg/day) of the same molecule?
The value was “significantly increased”.

What about the “percentage of Th2 subset” value (leukocyte populations; tumor tissue, 1 mg/kg/day) of the same molecule?
The value was “significantly increased”.

And the “percentage of Th17 subset” value (leukocyte populations; tumor tissue, 1 mg/kg/day)?
The value was “significantly increased”.

What about the “percentage of total T lymphocytes” value (leukocyte populations; tumor tissue, 1 mg/kg/day) of the same molecule?
The value was “higher”.

And the “percentage of tumor-infiltrating neutrophils” value (leukocyte populations; tumor tissue, 1 mg/kg/day)?
The value was “increased”.

What about the “proportion of MDSC” value (leukocyte populations; tumor tissue, 1 mg/kg/day) of the same molecule?
Its value is “not significantly altered”.

And the tumor-associated macrophages (leukocyte populations; tumor tissue, 1 mg/kg/day)?
Its tumor-associated macrophages is “reduced”.

What about the tumor growth (4T1 mammary carcinoma) of the same molecule?
The tumor growth was “significant inhibition of tumor growth”.

And the “survival (time until tumors reach maximal size)” value (B16 melanoma; B16 melanoma)?
The value was “significantly improved”.

What about the “survival (time until tumors reach maximal size)” value (B16 melanoma; B16 melanoma, listed as C3aRA) of the same molecule?
The value was “increased survival”.

What about the excised tumor weights (B16 melanoma; B16 melanoma, day 14, 1 mg/kg/day i.p. from day 7, vs vehicle) of the same molecule?
Its excised tumor weights is “significantly smaller”.

And the tumor area (B16 melanoma; [4])?
The tumor area was “significantly smaller than in the vehicle-treated control group”.

What about the tumor progression (B16 melanoma; [4]) of the same molecule?
Its tumor progression is “dramatically retarded”.

With PMX53 as the molecule, how does the “reduction in tumor growth observed in C3aR-/- mice” value (B16 melanoma; C3aR-/- mice, B16 melanoma, 1 mg/kg/day s.c. once tumors palpable) read?
Its value is “not enhanced”.

And the melanoma growth (B16 melanoma; WT mice, B16 melanoma, 1 mg/kg/day s.c. once tumors palpable, vs vehicle)?
The melanoma growth was “inhibited melanoma growth”.

Which “ERK and AKT signaling pathways” value [1] does the source give for “recombinant human C3a: recombinant human C3a used to stimulate B16 cells” here?
Its value is “activated”.

And the calcium mobilization response (C3aR)?
The calcium mobilization response was “failed to initiate a calcium mobilization response”.

How did the cell migration (B16 melanoma cells [2]) turn out when “WWGKKYRASKLGLAR (listed as Homo sapiens) [selective C3aR agonist]” was run?
The cell migration was “significantly increased”.

What about the tumor cell proliferation (B16 melanoma cells [3]) of the same molecule?
Its tumor cell proliferation is “no significant effect”.

What about the “ERK and AKT signaling pathways” value [1] of the same molecule?
Its value is “activated”.

What about the calcium mobilization response (C3aR) of the same molecule?
Its calcium mobilization response is “failed to initiate a calcium mobilization response”.

B1: G-CSF: granulocyte-colony stimulating factor (Lenograstim), stem cell-mobilizing agent (protein, UniProt P09919 31-207, looked up)
Granulocyte …: TPLGPASSLPQSFLLKCLEQVRKIQGDGAALQEKLVSECATYKLCHPEELVLLGHSLGIPWAPLSSCPSQALQLAGCLSQLHSGLFLYQGLLQALEGISPELGPTLDTLQLDVADFATTIWQQMEELGMAPALQPTQGAMPAFASAFQRRAGGVLVASHLQSFLEVSYRVLRHLAQP
Which results are given for B1?
blood CD11b+Ly6G+ (anti-tumor) neutrophils in C3aR-/- mice compared with saline (CD11b+Ly6G+ neutrophils): significantly enhanced; also recorded: significant (P=0.0079) increase; mobilization of blood neutrophils, C3aR-/- compared with wild-type mice (CD11b+Ly6G+ neutrophils): significantly (P=0.0056) greater mobilization of neutrophils

Reference: patent US10933049B2, “Mobilizing agents and uses therefor” (The University of Queensland, priority 2015, dated 2021)
